The values below are quoted from earlier work in US20100280059A1, “COMPOSITIONS COMPRISING AN ANTIHISTAMINE, A[…] DE[…] EXTENDED RELEASE FORMULATIONS” (Atley Pharmaceuticals, Inc., priority 2009, published 2010).

Assay in series [1]: not given
The source holds these as a separate data set.

Assay in series [2]: not given
The source holds these as a separate data set.

The mark [3] stands for this setting: single IR oral dose of 10 mg HC, 5 male human subjects.

Molecules are shown by their SMILES. Where two headings read alike, the source gives them in different places.

Regarding `CN(C)CCC(c1ccc(Cl)cc1)c1ccccn1` (stereo not shown) [CPM, chlorpheniramine], for the setting “in vivo”, the “excreted in the feces” value is on record as “Less than 1%” and the “renal elimination as share of total excretion” value is given as “approximately 50%”. Also, the “excreted in the urine” value (metabolism to monodesmethyl and didesmethyl compounds) is reported as “up to 26%”.

As for `COc1ccc2c3c1O[C@H]1C(=O)CC[C@H]4[C@@H](C2)N(C)CC[C@]314` [HC, hydrocodone], in series [1] (after a single oral dose), the “share of total excretion occurring in the first 24 hours” value is listed as “About 70%”. Besides, the “elimination half-life of the parent-compound” value in series [1] (in vivo) was 3.8 to 4.5 h. For the same molecule, in series [1] (setting [3]), the Tmax – broadly, the time at which the peak concentration occurs – was “approximately 1.3±0.3 hours” and the “mean peak serum concentration” value was 23.6 ± 5.2 ng/mL.

With `CN[C@@H](C)[C@@H](O)c1ccccc1` [PSE, pseudoephedrine], the half-life (as a rule, the time needed for the level to fall by half in the phase considered) in series [2] (affected by urinary pH) is 9 to 16 h. In addition, the Tmax in series [2] (following administration) is 1.5 to 2.4 h. The “dose excreted unchanged in the urine” value in series [2] (within 24 hours of dosing) is “up to 90%”.
